Values quoted from earlier work as cited in patent publication US9408867B2, “Antifungal compositions for the treatment of skin and nails” (Veloce BioPharma, LLC, priority 2011, dated 2016).
Where two headings read alike, the source gives them in different places.

Columns and labels:
[1] = human skin in vitro
[2] = 50% solution of DMSO in water

Row | ratio of penetration ([1]; dissolved in DMSO) | ratio of penetration ([1]; dissolved in alcohol) | ratio of penetration ([1]; dissolved in benzene) | ratio of penetration ([1]; dissolved in dimethylacetamide) | ratio of penetration ([1]; dissolved in dimethylformamide) | rate of penetration [2] | Structure (SMILES)
1 | 60 | 3 | 1 | 40 | 7 | – | COC1=CC(=O)C[C@@H](C)[C@]12Oc1c(Cl)c(OC)cc(OC)c1C2=O [griseofulvin]
2 | – | – | – | – | – | markedly enhanced | C[C@]12CCC(=O)C=C1CC[C@@H]1[C@@H]2[C@@H](O)C[C@@]2(C)[C@H]1CC[C@]2(O)C(=O)CO [hydrocortisone]
